According to patent publication US20120094964A1, “SULFAMOYL BENZOIC ACID DERIVATIVES AS TRPM8 ANTAGONISTS” (priority 2009, published 2012):

Molecular target: T1, human TRPM8 (Homo sapiens, UniProt Q7Z2W7)
T1 construct: expressed in transfected cells
Test: In Vitro human TRPM8 Functional Assay (intracellular Ca2+, Fluo4, FDSS, menthol activation)
Type: cell-based
Conditions: HEK293 cells stably expressing human TRPM8; activation with L-(-)-Menthol; 11-point dose-response
Description: In Vitro human TRPM8 Functional Assay
The functional activity of compounds was determined by measuring changes in intracellular calcium concentration using a Ca^2+-sensitive fluorescent dye, Fluo4 (Molecular Probes). The changes in fluorescent signal were monitored by the cell imaging technology by Hamamatsu Photonics's Functional Drug Screening System (FDSS).
HEK293 cells stably expressing human TRPM8 were grown in T175 flasks, in a 5% CO2 humidified incubator to about 80% confluence. Media composition consisted of Dulbecco's Modified Eagle Medium (high glucose), 10% fetal calf serum (FCS), 100 units/ml Penicillin, 100 microg/ml Streptomycin and 600 microg/ml Geneticine.
1. Plate-out HEK293-TRPM8 cells (40 microL medium containing 30,000 cells per well) into poly-D-lysine coated 384-well plates (BD FALCON) at 24 hours prior to assay.
1. […] 2. […] 3. Place the plate at room temperature in dark for 1 hour. 4. […] 5. Add 20 microL of compound solutions into each well and leave the plate for 5 minutes under the dark at room temperature. 6. Measure activity by FDSS as follows: • Set the assay plate on the stacker of FDSS • Start the detection of fluorescence intensity • After 30 sec, add 20 microL of 90 microM L-(−)-Menthol
IC50 values for compounds of the present invention were determined from 11-point dose-response studies. Curves were generated using the average of duplicate wells for each data point. Finally, the IC50 values are calculated with the best-fit dose curve determined by XLfit (ID Business Solutions Ltd.).

T1 sequence (Q7Z2W7 whole entry): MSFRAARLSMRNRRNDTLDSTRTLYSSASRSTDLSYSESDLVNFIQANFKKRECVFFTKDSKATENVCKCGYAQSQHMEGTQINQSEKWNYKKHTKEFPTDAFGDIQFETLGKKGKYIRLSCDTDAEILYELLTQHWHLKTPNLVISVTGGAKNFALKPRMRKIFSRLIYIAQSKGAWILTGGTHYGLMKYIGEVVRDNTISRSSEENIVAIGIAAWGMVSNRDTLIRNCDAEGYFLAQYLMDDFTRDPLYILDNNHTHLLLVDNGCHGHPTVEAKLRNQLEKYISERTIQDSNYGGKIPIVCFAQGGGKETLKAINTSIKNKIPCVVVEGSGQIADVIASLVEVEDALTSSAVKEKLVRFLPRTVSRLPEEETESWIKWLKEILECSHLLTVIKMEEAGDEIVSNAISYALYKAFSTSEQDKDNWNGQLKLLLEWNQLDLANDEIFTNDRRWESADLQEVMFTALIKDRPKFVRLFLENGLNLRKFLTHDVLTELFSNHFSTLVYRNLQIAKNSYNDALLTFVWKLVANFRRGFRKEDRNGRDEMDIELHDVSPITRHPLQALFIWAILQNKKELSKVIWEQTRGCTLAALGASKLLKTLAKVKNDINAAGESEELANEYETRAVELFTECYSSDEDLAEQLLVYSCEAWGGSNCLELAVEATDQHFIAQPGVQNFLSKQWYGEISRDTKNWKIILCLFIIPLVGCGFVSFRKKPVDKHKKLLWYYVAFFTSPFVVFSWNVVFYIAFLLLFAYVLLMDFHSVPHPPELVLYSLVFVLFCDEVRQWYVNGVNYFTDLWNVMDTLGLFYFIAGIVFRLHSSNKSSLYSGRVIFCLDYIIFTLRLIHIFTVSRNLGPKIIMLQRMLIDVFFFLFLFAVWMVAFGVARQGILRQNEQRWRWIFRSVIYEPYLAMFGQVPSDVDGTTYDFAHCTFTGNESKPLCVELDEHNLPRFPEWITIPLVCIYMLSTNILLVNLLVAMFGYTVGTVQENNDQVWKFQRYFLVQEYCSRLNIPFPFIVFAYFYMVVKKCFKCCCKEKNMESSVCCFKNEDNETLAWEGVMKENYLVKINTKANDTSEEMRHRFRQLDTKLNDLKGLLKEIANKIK

Row | Compound | IC50 [nM]
1 | O=C(O)c1ccc(S(=O)(=O)N(Cc2ccccc2OC(F)(F)F)c2ncc(C(F)(F)F)cc2Cl)cc1 [Example 51, 4-(N-(3-Chloro-5-(trifluoromethyl)pyridin-2-yl)-N-(2-(trifluoromethoxy)benzyl)sulfamoyl)benzoic acid] | < 1000
2 | O=C(O)c1ccc(S(=O)(=O)N(Cc2ccc(C(F)(F)F)cc2)c2ncc(Cl)cc2Cl)cc1 [Example 54, 4-(N-(3,5-Dichloropyridin-2-yl)-N-(4-(trifluoromethyl)benzyl)sulfamoyl)benzoic acid] | < 1000
3 | Cc1cc(Cl)cnc1N(Cc1ccc(C(F)(F)F)cc1)S(=O)(=O)c1ccc(C(=O)O)cc1 [Example 55, 4-(N-(5-Chloro-3-methylpyridin-2-yl)-N-(4-(trifluoromethyl)benzyl)sulfamoyl)benzoic acid] | < 1000
4 | O=C(O)c1ccc(S(=O)(=O)N(Cc2ccccc2)c2ccc(C(F)(F)F)cc2Cl)cc1 [Example 56, 4-(N-Benzyl-N-(2-chloro-4-(trifluoromethyl)phenyl)sulfamoyl)benzoic acid] | < 1000
5 | O=C(O)c1ccc(S(=O)(=O)N(CCN2CCOCC2)c2ncc(C(F)(F)F)cc2Cl)cc1 [Example 57, 4-(N-(3-Chloro-5-(trifluoromethyl)pyridin-2-yl)-N-(2-morpholinoethyl)sulfamoyl)benzoic acid] | 1000 to 10000
6 | O=C(O)c1ccc(S(=O)(=O)N(CCCc2ccccc2)c2ncc(C(F)(F)F)cc2Cl)cc1 [Example 59, 4-(N-(3-Chloro-5-(trifluoromethyl)pyridin-2-yl)-N-(3-phenylpropyl)sulfamoyl)benzoic acid] | < 1000
7 | O=C(O)c1ccc(S(=O)(=O)N(Cc2ccc(F)cc2)c2ncc(Cl)cc2Cl)cc1 [Example 61, 4-(N-(3,5-Dichloropyridin-2-yl)-N-(4-fluorobenzyl)sulfamoyl)benzoic acid] | < 1000
8 | O=C(O)c1ccc(S(=O)(=O)N(Cc2ccc(Cl)c(F)c2)c2ncc(Cl)cc2Cl)cc1 [Example 62, 4-(N-(4-Chloro-3-fluorobenzyl)-N-(3,5-dichloropyridin-2-yl)sulfamoyl)benzoic acid] | < 1000
9 | O=C(O)c1ccc(S(=O)(=O)N(Cc2ccc(OC(F)(F)F)cc2)c2ncc(Cl)cc2Cl)cc1 [Example 63, 4-(N-(3,5-Dichloropyridin-2-yl)-N-(4-(trifluoromethoxy)benzyl)sulfamoyl)benzoic acid] | < 1000
10 | O=C(O)c1ccc(S(=O)(=O)N(Cc2ccccc2C(F)(F)F)c2ncc(Cl)cc2Cl)cc1 [Example 64, 4-(N-(3,5-Dichloropyridin-2-yl)-N-(2-(trifluoromethyl)benzyl)sulfamoyl)benzoic acid] | < 1000
11 | O=C(O)c1ccc(S(=O)(=O)N(Cc2ccc(Cl)c(F)c2)c2ncc(C(F)(F)F)cc2Cl)cc1 [Example 65, 4-(N-(4-Chloro-3-fluorobenzyl)-N-(3-chloro-5-(trifluoromethyl)pyridin-2-yl)sulfamoyl)benzoic acid] | < 1000
12 | O=C(O)c1ccc(S(=O)(=O)N(Cc2ccc(Cl)c(C(F)(F)F)c2)c2ncc(Cl)cc2Cl)cc1 [Example 66, 4-(N-(4-Chloro-3-(trifluoromethyl)benzyl)-N-(3,5-dichloropyridin-2-yl)sulfamoyl)benzoic acid] | < 1000
13 | Cc1ccc(CN(c2ncc(Cl)cc2Cl)S(=O)(=O)c2ccc(C(=O)O)cc2)cc1F [Example 67, 4-(N-(3,5-Dichloropyridin-2-yl)-N-(3-fluoro-4-methylbenzyl)sulfamoyl)benzoic acid] | < 1000
14 | Cc1ccc(CN(c2ncc(Cl)cc2Cl)S(=O)(=O)c2ccc(C(=O)O)cc2)cc1C(F)(F)F [Example 68, 4-(N-(3,5-dichloropyridin-2-yl)-N-(4-methyl-3-(trifluoromethyl)benzyl)sulfamoyl)benzoic acid] | < 1000
15 | O=C(O)c1ccc(S(=O)(=O)N(Cc2ccc(F)c(Cl)c2)c2ncc(Cl)cc2Cl)cc1 [Example 69, 4-(N-(3-Chloro-4-fluorobenzyl)-N-(3,5-dichloropyridin-2-yl)sulfamoyl)benzoic acid] | < 1000
16 | CC1(c2ccc(CN(c3ncc(Cl)cc3Cl)S(=O)(=O)c3ccc(C(=O)O)cc3)cc2)CC1 [Example 70, 4-(N-(3,5-Dichloropyridin-2-yl)-N-(4-(1-methylcyclopropyl)benzyl)sulfamoyl)benzoic acid] | < 1000
17 | O=C(O)c1ccc(S(=O)(=O)N(Cc2ccc(F)c(Cl)c2)c2ncc(C(F)(F)F)cc2Cl)cc1 [Example 71, 4-(N-(3-Chloro-4-fluorobenzyl)-N-(3-chloro-5-(trifluoromethyl)pyridin-2-yl)sulfamoyl)benzoic acid] | < 1000

Row | Compound | IC50 [nM]
18 | O=C(O)c1ccc(S(=O)(=O)N(Cc2ccc(Cl)cc2C(F)(F)F)c2ncc(Cl)cc2Cl)cc1 [Example 72, 4-(N-(4-Chloro-2-(trifluoromethyl)benzyl)-N-(3,5-dichloropyridin-2-yl)sulfamoyl)benzoic acid] | < 1000
19 | O=C(O)c1ccc(S(=O)(=O)N(CCOc2ccc(F)cc2)c2ncc(Cl)cc2Cl)cc1 [Example 73, 4-(N-(3,5-Dichloropyridin-2-yl)-N-(2-(4-fluorophenoxy)ethyl)sulfamoyl)benzoic acid] | 10000 to 30000
20 | O=C(O)c1ccc(S(=O)(=O)N(Cc2ccc(N3CCCC3=O)cc2)c2ncc(Cl)cc2Cl)cc1 [Example 74, 4-(N-(3,5-Dichloropyridin-2-yl)-N-(4-(2-oxopyrrolidin-1-yl)benzyl)sulfamoyl)benzoic acid] | 1000 to 10000
21 | Cc1cc(Cl)cnc1N(Cc1ccc(Cl)cc1C(F)(F)F)S(=O)(=O)c1ccc(C(=O)O)cc1 [Example 75, 4-(N-(4-Chloro-2-(trifluoromethyl)benzyl)-N-(5-chloro-3-methylpyridin-2-yl)sulfamoyl)benzoic acid] | < 1000
22 | Cc1cc(Cl)cnc1N(Cc1ccc(F)c(C(F)(F)F)c1)S(=O)(=O)c1ccc(C(=O)O)cc1 [Example 76, 4-(N-(5-Chloro-3-methylpyridin-2-yl)-N-(4-fluoro-3-(trifluoromethyl)benzyl)sulfamoyl)benzoic acid] | < 1000
23 | Cc1cc(Cl)cnc1N(Cc1ccc(F)c(Cl)c1)S(=O)(=O)c1ccc(C(=O)O)cc1 [Example 77, 4-(N-(5-Chloro-3-methylpyridin-2-yl)-N-(3-chloro-4-fluorobenzyl)sulfamoyl)benzoic acid] | < 1000
24 | Cc1cc(Cl)cnc1N(Cc1ccc(OC(F)(F)F)cc1)S(=O)(=O)c1ccc(C(=O)O)cc1 [Example 78, 4-(N-(5-Chloro-3-methylpyridin-2-yl)-N-(4-(trifluoromethoxy)benzyl)sulfamoyl)benzoic acid] | < 1000
25 | Cc1cc(Cl)cnc1N(Cc1ccc(Cl)c(C(F)(F)F)c1)S(=O)(=O)c1ccc(C(=O)O)cc1 [Example 79, 4-(N-(4-Chloro-3-(trifluoromethyl)benzyl)-N-(5-chloro-3-methylpyridin-2-yl)sulfamoyl)benzoic acid] | < 1000
26 | Cc1cc(Cl)cnc1N(Cc1ccc(N2CCCC2=O)cc1)S(=O)(=O)c1ccc(C(=O)O)cc1 [Example 80, 4-(N-(5-Chloro-3-methylpyridin-2-yl)-N-(4-(2-oxopyrrolidin-1-yl)benzyl)sulfamoyl)benzoic acid] | 1000 to 10000
27 | O=C(O)c1ccc(S(=O)(=O)N(CCN2CCOCC2)c2ccc(C(F)(F)F)cc2Cl)cc1 [Example 81, 4-(N-(2-Chloro-4-(trifluoromethyl)phenyl)-N-(2-morpholinoethyl)sulfamoyl)benzoic acid] | 1000 to 10000
28 | O=C(O)c1ccc(S(=O)(=O)N(Cc2ccccn2)c2ccc(C(F)(F)F)cc2Cl)cc1 [Example 82, 4-(N-(2-Chloro-4-(trifluoromethyl)phenyl)-N-(pyridin-2-ylmethyl)sulfamoyl)benzoic acid] | 1000 to 10000
29 | O=C(O)c1ccc(S(=O)(=O)N(CCN2CCCCC2)c2ccc(C(F)(F)F)cc2Cl)cc1 [Example 83, 4-(N-(2-Chloro-4-(trifluoromethyl)phenyl)-N-(2-(piperidin-1-yl)ethyl)sulfamoyl)benzoic acid] | 1000 to 10000
30 | COc1cccc(N(CC(=O)N2CCN(Cc3ccccc3)CC2)S(=O)(=O)c2ccccc2)c1 [Example 84, N-(2-(4-Benzylpiperazin-1-yl)-2-oxoethyl)-N-(3-methoxyphenyl)benzene-sulfonamide] | 1000 to 10000
31 | COc1ccc(OC)c(C(C)N(c2ccc(C)cc2)S(=O)(=O)c2ccc(C)cc2)c1 (stereo not shown) [Example 85, N-(1-(2,5-Dimethoxyphenyl)ethyl)-4-methyl-N-p-tolylbenzenesulfonamide] | 1000 to 10000
32 | COc1ccc(OC)c(C(C)N(c2cccc(Cl)c2)S(=O)(=O)c2ccc(C)cc2)c1 (stereo not shown) [Example 86, N-(3-Chlorophenyl)-N-(1-(2,5-dimethoxyphenyl)ethyl)-4-methylbenzene-sulfonamide] | 1000 to 10000
33 | COc1ccc(N(C(C)c2ccc(Cl)cc2)S(=O)(=O)c2ccccc2)cc1 (stereo not shown) [Example 87, N-(1-(4-Chlorophenyl)ethyl)-N-(4-methoxyphenyl) benzenesulfonamide] | 1000 to 10000
34 | COc1ccc(N(C(C)c2ccccc2F)S(=O)(=O)c2ccc(F)cc2)cc1 (stereo not shown) [Example 88, 4-Fluoro-N-(1-(2-fluorophenyl)ethyl)-N-(4-methoxyphenyl)benzene-sulfonamide] | < 1000
